# Measurements from ChEMBL document CHEMBL1201862, “PubChem BioAssay data set” (2004).
# Active and inactive are the calls of the source.
# Columns and labels:
# [1] = molecular target: G-protein coupled receptor 55 (Homo sapiens, UniProt Q9Y2T6); assay: GPR55 agonists via beta-arrestin recruitment, primary screen, imaging, U2OS cells, beta-arrestin-GFP redistribution (AID 1961); type: functional
# [2] = molecular target: T1, Histone-lysine N-methyltransferase NSD2 (Homo sapiens, UniProt O96028); type: biochemical
# T1 sequence (O96028 whole entry): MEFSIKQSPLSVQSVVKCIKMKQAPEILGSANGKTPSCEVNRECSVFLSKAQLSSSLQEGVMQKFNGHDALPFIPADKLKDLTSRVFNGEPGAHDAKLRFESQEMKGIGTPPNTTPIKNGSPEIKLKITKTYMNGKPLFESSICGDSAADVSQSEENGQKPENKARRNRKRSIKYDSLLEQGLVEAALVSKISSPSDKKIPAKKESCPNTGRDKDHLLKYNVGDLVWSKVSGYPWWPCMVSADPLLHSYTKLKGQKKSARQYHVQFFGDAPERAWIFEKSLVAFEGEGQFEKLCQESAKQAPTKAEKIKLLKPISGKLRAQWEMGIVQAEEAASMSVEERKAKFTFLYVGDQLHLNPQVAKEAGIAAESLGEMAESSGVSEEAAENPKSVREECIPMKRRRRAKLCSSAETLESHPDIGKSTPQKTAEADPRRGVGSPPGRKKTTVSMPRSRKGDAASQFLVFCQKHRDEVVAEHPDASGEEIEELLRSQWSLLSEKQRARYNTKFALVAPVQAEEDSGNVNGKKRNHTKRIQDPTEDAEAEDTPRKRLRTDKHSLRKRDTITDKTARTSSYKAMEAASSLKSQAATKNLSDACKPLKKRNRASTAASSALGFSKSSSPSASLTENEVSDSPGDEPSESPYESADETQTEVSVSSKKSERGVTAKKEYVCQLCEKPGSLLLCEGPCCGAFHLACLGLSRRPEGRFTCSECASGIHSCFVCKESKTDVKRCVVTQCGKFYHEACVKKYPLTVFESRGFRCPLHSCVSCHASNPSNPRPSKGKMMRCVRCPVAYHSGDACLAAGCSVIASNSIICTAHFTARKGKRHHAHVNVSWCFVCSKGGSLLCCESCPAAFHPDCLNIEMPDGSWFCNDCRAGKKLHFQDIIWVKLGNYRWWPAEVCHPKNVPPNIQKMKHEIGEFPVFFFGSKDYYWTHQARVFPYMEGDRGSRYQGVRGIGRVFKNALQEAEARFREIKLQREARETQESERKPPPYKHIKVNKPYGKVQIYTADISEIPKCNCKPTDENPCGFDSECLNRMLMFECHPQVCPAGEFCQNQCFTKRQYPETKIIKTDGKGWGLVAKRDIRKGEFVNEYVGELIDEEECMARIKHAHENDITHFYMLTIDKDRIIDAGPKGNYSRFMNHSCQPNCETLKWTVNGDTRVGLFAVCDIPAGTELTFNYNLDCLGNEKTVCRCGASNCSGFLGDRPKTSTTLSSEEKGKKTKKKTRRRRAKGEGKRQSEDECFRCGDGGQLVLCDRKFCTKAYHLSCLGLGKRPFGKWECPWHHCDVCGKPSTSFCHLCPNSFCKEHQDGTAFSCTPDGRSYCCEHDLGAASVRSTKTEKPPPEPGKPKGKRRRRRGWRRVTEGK
# [3] = molecular target: T2, Cytochrome P450 2C9 (Homo sapiens, UniProt P11712)
# T2 sequence (P11712 whole entry): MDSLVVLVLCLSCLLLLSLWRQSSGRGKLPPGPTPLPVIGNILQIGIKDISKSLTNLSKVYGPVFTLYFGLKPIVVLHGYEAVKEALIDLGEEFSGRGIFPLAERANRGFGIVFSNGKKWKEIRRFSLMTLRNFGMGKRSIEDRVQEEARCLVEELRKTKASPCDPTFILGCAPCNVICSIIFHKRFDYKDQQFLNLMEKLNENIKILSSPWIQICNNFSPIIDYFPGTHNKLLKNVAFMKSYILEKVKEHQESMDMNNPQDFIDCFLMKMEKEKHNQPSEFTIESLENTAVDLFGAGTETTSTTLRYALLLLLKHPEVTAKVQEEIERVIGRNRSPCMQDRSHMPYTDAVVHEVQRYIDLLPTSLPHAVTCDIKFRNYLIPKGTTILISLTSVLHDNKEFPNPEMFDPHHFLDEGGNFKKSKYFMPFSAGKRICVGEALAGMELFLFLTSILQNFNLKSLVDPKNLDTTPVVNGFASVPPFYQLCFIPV
# [4] = molecular target: T3, Cytochrome P450 1A2 (Homo sapiens, UniProt P05177);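 note: PubChem cytochrome P450 panel assay, CYP1A2 panel member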
# T3 sequence (P05177 whole entry): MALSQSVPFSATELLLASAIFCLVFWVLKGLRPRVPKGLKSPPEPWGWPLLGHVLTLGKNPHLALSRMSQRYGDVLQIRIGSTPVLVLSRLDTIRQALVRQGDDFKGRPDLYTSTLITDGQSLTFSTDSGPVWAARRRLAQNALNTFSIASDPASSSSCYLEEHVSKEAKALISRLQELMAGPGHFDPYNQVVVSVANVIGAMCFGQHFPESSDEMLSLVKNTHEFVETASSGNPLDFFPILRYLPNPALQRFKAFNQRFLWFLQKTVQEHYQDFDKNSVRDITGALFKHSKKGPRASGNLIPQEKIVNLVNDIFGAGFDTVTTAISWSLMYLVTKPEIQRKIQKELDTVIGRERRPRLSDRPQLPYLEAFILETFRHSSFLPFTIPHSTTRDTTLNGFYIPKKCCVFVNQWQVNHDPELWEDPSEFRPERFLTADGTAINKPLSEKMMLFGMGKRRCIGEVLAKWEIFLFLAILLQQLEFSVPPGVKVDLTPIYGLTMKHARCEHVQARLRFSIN
# [5] = molecular target: Cytochrome P450 2C19 (Homo sapiens, UniProt P33261); assay: Cytochrome panel assay with activity outcomes. Panel member name: p450-cyp2c19 Compounds with AC50 equal or less than 10 uM are considered active; type: functional
# Cytochrome P450 2C19, sequence (P33261 whole entry): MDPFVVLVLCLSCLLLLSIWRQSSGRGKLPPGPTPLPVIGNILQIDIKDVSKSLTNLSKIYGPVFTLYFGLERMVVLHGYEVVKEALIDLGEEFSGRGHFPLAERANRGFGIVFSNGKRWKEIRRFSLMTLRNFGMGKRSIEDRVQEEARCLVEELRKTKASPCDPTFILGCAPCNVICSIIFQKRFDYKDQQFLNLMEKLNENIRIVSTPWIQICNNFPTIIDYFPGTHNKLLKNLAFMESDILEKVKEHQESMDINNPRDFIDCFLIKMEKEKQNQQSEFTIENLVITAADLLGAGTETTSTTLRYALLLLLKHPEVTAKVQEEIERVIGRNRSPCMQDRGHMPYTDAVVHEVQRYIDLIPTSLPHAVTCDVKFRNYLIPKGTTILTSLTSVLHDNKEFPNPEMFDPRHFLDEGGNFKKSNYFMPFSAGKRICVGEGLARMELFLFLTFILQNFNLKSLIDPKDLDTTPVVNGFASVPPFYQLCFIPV
# [6] = growth suppression of PTEN-null colon cells, dose response, cell-based, HCT116 PTEN knockout (AID 1047); type: functional;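 note: HCT116 colon tumor cells with PTEN knocked out; cells exposed to compound for 60 hours before readout; potency for loss of cell viability measured by luminescence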
# [7] = molecular target: Cytochrome P450 3A4 (Homo sapiens, UniProt P08684);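 note: CYP3A4 tested as one member of a cytochrome P450 panel screen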
# Cytochrome P450 3A4, sequence (P08684 whole entry): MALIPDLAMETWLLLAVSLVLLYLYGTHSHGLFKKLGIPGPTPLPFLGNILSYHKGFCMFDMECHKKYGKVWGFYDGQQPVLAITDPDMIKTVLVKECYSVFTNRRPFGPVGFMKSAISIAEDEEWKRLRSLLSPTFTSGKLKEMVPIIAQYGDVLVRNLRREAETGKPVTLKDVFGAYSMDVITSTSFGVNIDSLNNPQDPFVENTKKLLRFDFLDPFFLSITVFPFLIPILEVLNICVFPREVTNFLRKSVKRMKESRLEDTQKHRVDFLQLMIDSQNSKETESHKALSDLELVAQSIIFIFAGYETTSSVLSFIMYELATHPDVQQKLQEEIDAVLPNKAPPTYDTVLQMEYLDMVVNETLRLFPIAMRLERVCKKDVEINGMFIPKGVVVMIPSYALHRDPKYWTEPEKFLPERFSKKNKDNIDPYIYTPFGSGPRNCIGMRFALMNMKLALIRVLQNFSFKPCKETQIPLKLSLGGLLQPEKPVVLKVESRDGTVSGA
# [8] = growth suppression of beta-catenin-knockout colon cells, dose response, cell-based, HCT116, human colon tumor (AID 1045); type: functional;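 note: HCT116 colon tumor cells with beta catenin knocked out; cells exposed to compound for 60 hours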
# [9] = molecular target: Cytochrome P450 2D6 (Homo sapiens, UniProt P10635);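 note: CYP2D6 member of a cytochrome P450 panel assay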
# Cytochrome P450 2D6, sequence (P10635 whole entry): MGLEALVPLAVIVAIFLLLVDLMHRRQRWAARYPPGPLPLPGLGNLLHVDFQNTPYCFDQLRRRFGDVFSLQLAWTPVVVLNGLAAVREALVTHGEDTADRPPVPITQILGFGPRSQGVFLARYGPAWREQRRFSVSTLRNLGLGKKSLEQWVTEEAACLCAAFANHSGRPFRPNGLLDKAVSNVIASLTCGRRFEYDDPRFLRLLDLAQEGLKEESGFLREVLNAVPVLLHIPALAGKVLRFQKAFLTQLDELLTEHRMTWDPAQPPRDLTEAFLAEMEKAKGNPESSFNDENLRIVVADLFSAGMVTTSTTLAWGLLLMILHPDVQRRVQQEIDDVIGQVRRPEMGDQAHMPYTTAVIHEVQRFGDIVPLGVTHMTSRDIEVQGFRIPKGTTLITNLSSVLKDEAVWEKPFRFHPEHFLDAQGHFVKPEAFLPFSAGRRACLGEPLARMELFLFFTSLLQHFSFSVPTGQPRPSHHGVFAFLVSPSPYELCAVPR
# [10] = molecular target: T2, Cytochrome P450 2C9; remark: listed apart in the source
# [11] = cytotoxicity in HEK-293T cells, dose response, cytotoxicity control for BCR NF-kB inhibitor project, luminescence, B-cell screen hits (AID 489021); type: functional, cell-based;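 note: HEK-293T cells carrying an NF-kB luciferase reporter; cells exposed to compound for about 14 hours before viability readout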
# [12] = molecular target: T4, Calpain-2 catalytic subunit (Sus scrofa, UniProt P43367); assay: pig calpain II inhibitor potency, dose response, biochemical, fluorogenic peptide substrate (AID 1420); type: functional
# T4 sequence (P43367 whole entry): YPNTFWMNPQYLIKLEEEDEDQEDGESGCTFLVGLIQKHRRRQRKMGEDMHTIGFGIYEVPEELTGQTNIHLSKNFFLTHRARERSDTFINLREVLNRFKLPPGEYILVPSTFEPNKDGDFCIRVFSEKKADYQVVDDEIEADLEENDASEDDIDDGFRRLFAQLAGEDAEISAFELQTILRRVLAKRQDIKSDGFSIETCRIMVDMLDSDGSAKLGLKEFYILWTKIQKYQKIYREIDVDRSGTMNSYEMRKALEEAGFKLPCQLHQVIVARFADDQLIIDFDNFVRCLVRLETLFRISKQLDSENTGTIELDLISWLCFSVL
# [13] = test system: INS1; assay: beta cell apoptosis inhibitors, cytokine rescue, dose response, luminescence, retest (AID 449756); type: functional, cell-based; conditions: Rattus norvegicus;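 note: cell death triggered by IL-1 beta plus TNF-alpha plus IFN-gamma mixture; protective hits raise ATP signal compared with cytokine alone wells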
# [14] = intracellular Trypanosoma cruzi inhibitors in host cells – cell-based, plate reader, cherry-pick samples, set 3, dose response (AID 651818); type: functional;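 note: compounds incubated with infected cells for about four days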
# [15] = molecular target: T5, Corticotropin-releasing factor receptor 2/Corticotropin-releasing factor-binding protein (Homo sapiens, UniProt P24387+Q13324); assay: activators of CRF receptor 2 with binding protein – uHTS hits, confirmation (AID 602473); type: functional; conditions: read-out: EC50_Mean
# T5 sequence (Q13324 whole entry): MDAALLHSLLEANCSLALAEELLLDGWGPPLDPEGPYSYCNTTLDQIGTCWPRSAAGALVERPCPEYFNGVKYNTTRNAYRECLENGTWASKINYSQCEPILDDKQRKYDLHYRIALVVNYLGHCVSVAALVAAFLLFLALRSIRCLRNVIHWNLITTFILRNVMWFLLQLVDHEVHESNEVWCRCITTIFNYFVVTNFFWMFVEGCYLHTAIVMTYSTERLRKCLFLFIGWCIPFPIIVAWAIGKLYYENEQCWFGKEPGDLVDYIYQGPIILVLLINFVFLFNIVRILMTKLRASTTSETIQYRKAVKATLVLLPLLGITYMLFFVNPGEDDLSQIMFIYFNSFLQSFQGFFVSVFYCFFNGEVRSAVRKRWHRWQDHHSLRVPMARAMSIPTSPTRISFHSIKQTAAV
# T5 sequence (P24387 whole entry): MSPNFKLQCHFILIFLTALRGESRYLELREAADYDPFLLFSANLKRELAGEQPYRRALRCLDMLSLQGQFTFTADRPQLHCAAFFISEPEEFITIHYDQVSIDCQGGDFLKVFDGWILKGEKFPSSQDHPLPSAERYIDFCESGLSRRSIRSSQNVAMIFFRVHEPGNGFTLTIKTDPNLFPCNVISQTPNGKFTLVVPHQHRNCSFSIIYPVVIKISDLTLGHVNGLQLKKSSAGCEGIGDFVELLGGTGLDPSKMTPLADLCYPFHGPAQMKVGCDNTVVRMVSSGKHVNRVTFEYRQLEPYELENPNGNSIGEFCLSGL
# G-protein coupled receptor 55, sequence (Q9Y2T6 whole entry): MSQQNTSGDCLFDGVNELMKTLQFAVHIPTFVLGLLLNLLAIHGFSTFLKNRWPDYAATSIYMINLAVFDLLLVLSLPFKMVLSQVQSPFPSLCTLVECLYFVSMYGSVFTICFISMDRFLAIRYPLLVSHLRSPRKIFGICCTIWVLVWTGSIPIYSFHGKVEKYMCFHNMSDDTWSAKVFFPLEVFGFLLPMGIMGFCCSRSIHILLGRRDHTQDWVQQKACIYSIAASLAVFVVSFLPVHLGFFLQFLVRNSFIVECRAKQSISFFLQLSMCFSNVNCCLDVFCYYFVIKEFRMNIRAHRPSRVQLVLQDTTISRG
smiles,measurement,setting,value
CCc1noc(C)c1C(=O)Nc1nc(-c2ccc(Cl)cc2Cl)cs1,EC50,[1],3.56 µM (active)
O=C(N[C@H]1CCC(=O)N([C@H](CSc2ccccc2)Cc2ccccc2)CC1)OCc1ccccc1,EC50,[1],1.74 µM (active)
CCN(CC)CCCNc1nc(-n2nc(C)cc2C)nc2sc3c(c12)CC(C)(C)OC3,AC50,[2],> 20 µM (inactive)
CCOC(=O)c1c(C)c(C(=O)N2CCN(C(=O)c3ccco3)CC2)c(C)n1C,AC50,[3],inconclusive
same,AC50,[4],39.8 µM (inconclusive)
same,AC50,[5]; read-out: AC50,28.2 µM (inconclusive)
COc1ccccc1/C=C/C(=O)c1ccc(Cl)cc1,EC50,[6],23.5 µM (active)
same,EC50,[1],25.5 µM (inactive)
same,AC50,[7],28.2 µM (inconclusive)
same,EC50,[8],21.8 µM (active)
same,AC50,[9],15.8 µM (inconclusive)
same,AC50,[10],22.4 µM (inconclusive)
C[C@@]1(O)CCOC(=O)C1,AC50,[3],inconclusive
same,AC50,[5],inconclusive
O=C(/C=C/c1ccco1)Nc1scc(-c2ccccc2)c1C(=O)O,AC50,[2],> 20 µM (inactive)
Cc1noc(C)c1CSc1nc2nncc-2c(O)n1-c1ccccc1,IC50,[11],> 80 µM (inactive)
CC(=O)c1c(C)[nH]c(C(=O)OCc2cccc(Cl)c2)c1C,IC50,[12],7.75 µM (not active)
same,AC50,[13],20 µM (active)
COc1ccc(NS(=O)(=O)c2cc(NC(=O)c3cc(=O)c4ccccc4o3)ccc2OC)cc1,IC50,[11],> 80 µM (inactive)
CN(C)c1ccc(-c2nc(N(C)Cc3ccco3)c3ccccc3n2)cc1,AC50,[3],inconclusive
same,AC50,[5]; read-out: AC50,20 µM (inconclusive)
COc1ccccc1CNC(=O)CCCn1c(=O)c2ccccc2n(CC(=O)NC2CCCC2)c1=O,AC50,[3],inconclusive
COCCNc1ccnc(-c2ccccc2C(F)(F)F)n1,AC50,[3],inconclusive
same,AC50,[4],20 µM (inconclusive)
CC(=C\c1ccccc1)/C=C1/SC(=O)N(CCCC(=O)Nc2ccc(C(=O)O)cc2)C1=O,IC50,[11],> 80 µM (inactive)
CC(=O)Nc1ccc(Sc2ccccc2C(=O)O)cn1,AC50,[2],6.95 µM (active)
CCN(CC)CCCNc1nc(CN2CCOCC2)nc2sc3c(c12)CCC3,AC50,[2],> 20 µM (inactive)
CCN(CC(=O)Nc1c(F)cccc1F)C(=O)c1cc([N+](=O)[O-])ccc1N1CCCCC1,IC50,[11],> 80 µM (inactive)
O=S(=O)(NCc1cc(-c2ccccc2Cl)no1)c1ccccc1,AC50,[3],inconclusive
same,AC50,[9],39.8 µM (inconclusive)
COc1ccc(NC(=O)Nc2cccc3c2O[C@H](CN(C)S(=O)(=O)c2ccc(F)cc2)[C@@H](C)CN([C@H](C)CO)C3=O)cc1,AC50,[14],20 µM (inactive)
CCOc1ccc(/C=N/OCC(=O)NC(c2ccccc2)c2ccccc2)cc1,EC50,[15],> 53 µM (inactive)
same,IC50,[12],7.59 µM (not active)
C[C@@H]1CCCCO[C@H](CN(C)CC2CCCCC2)[C@@H](C)CN([C@H](C)CO)C(=O)c2cc(NC(=O)Nc3ccc4c(c3)OCO4)ccc2O1,AC50,[14],1.96 µM (active)
Cc1ccc(S(=O)(=O)N(C)C[C@H]2OCCCC[C@@H](C)Oc3ccc(NS(=O)(=O)c4ccc(Cl)cc4)cc3C(=O)N([C@H](C)CO)C[C@@H]2C)cc1,AC50,[14],3.91 µM (active)
C[C@@H]1CN([C@H](C)CO)C(=O)Cc2cc(NC(=O)Cc3ccccc3)ccc2O[C@H]1CN(C)Cc1ccc(C(F)(F)F)cc1,AC50,[14],5.77 µM (active)
C[C@@H]1CN([C@@H](C)CO)C(=O)c2cccc(NC(=O)Nc3ccc(C(F)(F)F)cc3)c2O[C@H]1CN(C)Cc1ccc2c(c1)OCO2,AC50,[14],1.34 µM (active)
C[C@@H]1CN([C@H](C)CO)C(=O)Cc2cc(NS(=O)(=O)c3ccc(Cl)cc3)ccc2O[C@H]1CN(C)Cc1ccc(Oc2ccccc2)cc1,AC50,[14],4.56 µM (active)
CN(C)c1cc[n+](Cc2c(Cl)cccc2Cl)cc1,IC50,[11],> 80 µM (inactive)
same,AC50,[13],3.85 µM (active)
Nc1ccccc1S(N)(=O)=O,AC50,[3],inconclusive
COC(=O)Nc1nc2ccc(C(=O)c3ccccc3)cc2[nH]1 [MEBENDAZOLE],AC50,[3],inconclusive
